Source: patent US11498923B2 (Merck Sharp & Dohme Corp., priority 2017, dated 2022)

These compounds were tested against T1, human A2a receptor (Homo sapiens, UniProt P29274) (assay: A2a receptor competition binding assay (Scintillation Proximity)). Settings: membranes from HEK293 cells expressing human A2a receptor; 0.5 nM tritiated ligand; Cheng-Prusoff; read-out: A2a Ki.
T1 construct: purchased Perkin-Elmer RBHA2AM400UA; host or cells: HEK293 cells, used as a membrane preparation
How it was run: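 Ki values were obtained with the Cheng-Prusoff equation from competition curves against 0.5 nM tritiated antagonist, scintillation proximity counting after 1 h room-temperature incubation. Receptor came from HEK293 membranes pretreated with adenosine deaminase; compound final range 3000–0.15 nM, buffer Ca/Mg-free PBS with 10 mM MgCl2.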

T1 sequence (P29274 whole entry): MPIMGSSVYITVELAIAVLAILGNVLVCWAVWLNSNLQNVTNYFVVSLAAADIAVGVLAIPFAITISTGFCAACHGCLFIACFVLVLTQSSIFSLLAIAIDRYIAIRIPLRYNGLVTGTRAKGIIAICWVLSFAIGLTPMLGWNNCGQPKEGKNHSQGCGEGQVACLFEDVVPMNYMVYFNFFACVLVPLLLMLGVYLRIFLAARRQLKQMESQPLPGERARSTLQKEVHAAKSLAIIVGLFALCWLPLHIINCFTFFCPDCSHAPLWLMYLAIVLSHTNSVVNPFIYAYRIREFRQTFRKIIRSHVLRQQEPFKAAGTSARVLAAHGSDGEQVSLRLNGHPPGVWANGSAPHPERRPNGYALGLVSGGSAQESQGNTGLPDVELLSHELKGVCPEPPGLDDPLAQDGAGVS

Ki [nM]	SMILES
10	Nc1nc2c(F)cccc2c2nc(Cc3ccc(-c4ccc(F)cn4)cc3)cn12 [Ex-76, 7-fluoro-2-(4-(5-fluoropyridin-yl)benzyl)imidazo[1,2-c]quinazolin-5-amine]
13.1	COc1cccc2c1nc(N)n1cc(CCN3Cc4cccnc4C3)nc21 [Ex-137, 2-(2-(5,7-dihydro-6H-pyrrolo[3,4-b]pyridin-6-yl)ethyl)-7-methoxyimidazo[1,2-c]quinazolin-5-amine]
11.5	COc1cccc2c1nc(N)n1cc(C(=O)N3CCCC(C)C3)nc21 (centres unmarked) [Ex-170, (5-amino-7-methoxyimidazo[1,2-c]quinazolin-2-yl)(3-methylpiperidin-1-yl)methanone]
37	COc1cccc2c1nc(N)n1cc(C(=O)N3CC4CC3CS(=O)(=O)C4)nc21 (centres unmarked) [Ex-237, (5-amino-7-methoxyimidazo[1,2-c]quinazolin-2-yl)(3,3-dioxido-3-thia-6-azabicyclo[3.2.1]octan-6-yl)methanone]
13	COc1cccc2c1nc(N)n1cc(C(=O)N3CCC(C)CC3)nc21 [Ex-193, (5-amino-7-methoxyimidazo[1,2-c]quinazolin-2-yl)(4-methylpiperidin-1-yl)methanone]
10.2	Nc1nc2ccccc2c2nc(Cc3ccccc3CN3CCOCC3)cn12 [Ex-25, 2-(2-(morpholinomethyl)benzyl)imidazo[1,2-c]quinazolin-5-amine]
2.9	COc1cccc2c1nc(N)n1cc(C(=O)N3CCCC3C(C)C)nc21 (centres unmarked) [Ex-209, (5-amino-7-methoxyimidazo[1,2-c]quinazolin-2-yl)(2-isopropylpyrrolidin-1-yl)methanone]
2.1	COc1cccc2c1nc(N)n1cc(C(=O)N3CCC(C)(C)CC3)nc21 [Ex-207, (5-amino-7-methoxyimidazo[1,2-c]quinazolin-2-yl)(4,4-dimethylpiperidin-1-yl)methanone]
2.9	Nc1nc2c(F)cccc2c2nc(C(=O)NCc3ccccc3OC3CCN(c4ccccn4)CC3)cn12 [Ex-263, 5-amino-7-fluoro-N-(2-((1 (pyridin-2-yl)piperidin-4-yl)oxy)benzyl)imidazo[1,2-c]quinazoline-2-carboxamide]
4.6	Nc1nc2cc(F)ccc2c2nc(Cc3ccccc3)cn12 [Ex-07, 2-benzyl-8-fluoroimidazo[1,2-c]quinazolin-5-amine]
66	Nc1nc2c(F)cccc2c2nc(C(=O)N3CCCC4(CCNC4)C3)cn12 (centres unmarked) [Ex-268, (5-amino-7-fluoroimidazo[1,2-c]quinazolin-2-yl)(2,7-diazaspiro[4.5]decan-7-yl)methanone]
4.4	Nc1nc2c(F)cccc2c2nc(CCc3ccccc3)cn12 [Ex-100, 7-fluoro-2-phenethylimidazo[1,2-c]quinazolin-5-amine]
220	Nc1nc2c(F)cccc2c2nc(C(=O)N3CCCC4(CCNC4)C3)cn12 (centres unmarked) [Ex-266, (5-amino-7-fluoroimidazo[1,2-c]quinazolin-2-yl)(2,7-diazaspiro[4.5]decan-7-yl)methanone]
4.5	CC(C)(C)OC(=O)N1CCN(c2ccccc2CNC(=O)c2cn3c(N)nc4c(F)cccc4c3n2)CC1 [Ex-256, tert-butyl 4-(2-((5-amino-7-fluoroimidazo[1,2-c]quinazoline-2-carboxamido)methyl)phenyl) piperazine-1-carboxylate]
21	COc1cccc2c1nc(N)n1cc(C(=O)N3CCCCC3)nc21 [Ex-190, (5-amino-7-methoxyimidazo[1,2-c]quinazolin-2-yl)(piperidin-1-yl)methanone]
46	Nc1nc2c(F)cccc2c2nc(CN3CCc4cc(-c5ccc(F)c(F)c5)ccc4C3)cn12 [Ex-130, 2-((6-(3,4-difluorophenyl)-3,4-dihydroisoquinolin-2(1H)-yl)methyl)-7-fluoroimidazo[1,2-c]quinazolin-5-amine]

Ki [nM]	SMILES
18	Nc1nc2c(F)cccc2c2nc(CN3Cc4ccc(F)cc4C3)cn12 [Ex-124, 7-fluoro-2-((5-fluoroisoindolin-2-yl)methyl)imidazo[1,2-c]quinazolin-5-amine]
9.1	Nc1nc2c(Br)cccc2c2nc(CNCc3ccccc3)cn12 [Ex-140, 2-((benzylamino)methyl)-7-bromoimidazo[1,2-c]quinazolin-5-amine]
28	C[C@H](NC(=O)c1cn2c(N)nc3c(F)cccc3c2n1)c1ccccc1 [Ex-296, (S)-5-amino-7-fluoro-N-(1-phenylethyl)imidazo[1,2-c]quinazoline-2-carboxamide]
210	COc1cccc2c1nc(N)n1cc(C(=O)N3CC(C)(C)OC(C)(C)C3)nc21 [Ex-223, (5-amino-7-methoxyimidazo[1,2-c]quinazolin-2-yl)(2,2,6,6-tetramethylmorpholino) methanone]
94	COc1ccccc1CN1CCC(Cc2cn3c(N)nc4c(F)cccc4c3n2)CC1 [Ex-311, 7-fluoro-2-((1-(2-methoxybenzyl)-piperidin-4-yl)-methyl)imidazo-[1,2-c]quinazolin-5-amine]
53.2	COc1cccc2c1nc(N)n1cc(CN3CCN(c4ccccc4)CC3)nc21 [Ex-110, 7-methoxy-2-((4-phenylpiperazin-1-yl)methyl)imidazo[1,2-c]quinazolin-5-amine]
18	COc1cccc2c1nc(N)n1cc(C(=O)N3CCCC(F)(F)C3)nc21 [Ex-172, (5-amino-7-methoxyimidazo[1,2-c]quinazolin-2-yl)(3,3-difluoropiperidin-1-yl)methanone]
160	Nc1nc2c(F)cccc2c2nc(CN3CCN(Cc4ccccc4)CC3)cn12 [Ex-111, 2-((4-benzylpiperazin-1-yl)methyl)-7-fluoroimidazo[1,2-c]quinazolin-5-amine]
7.8	COc1cccc2c1nc(N)n1cc(C(=O)N3CCC[C@@H]3C(F)(F)F)nc21 [Ex-217, (R)-(5-amino-7-methoxyimidazo[1,2-c]quinazolin-2-yl)(2-(trifluoromethyl)pyrrolidin-1-yl)methanone]
53	COc1cccc2c1nc(N)n1cc(C(=O)N3C[C@@H](C)O[C@@H](C)C3)nc21 [Ex-180, (5-amino-7-methoxyimidazo[1,2-c]quinazolin-2-yl)((2R,6S)-2,6-dimethylmorpholino) methanone]
6.9	Nc1nc2c(F)cccc2c2nc(Cc3cc(F)ccc3-c3ccnc(N4CCOCC4)c3)cn12 [Ex-83]
2.2	COc1cccc2c1nc(N)n1cc(Cc3ccccc3CN3CCN(c4ccccc4)CC3)nc21 [Ex-67]
40	Nc1nc2c(F)cccc2c2nc(Cc3ccc(C(=O)NC4(c5ccccc5)CC4)cc3)cn12 [Ex-87, 4-((5-amino-7-fluoroimidazo[1,2-c]quinazolin-2-yl)methyl)-N-(1-phenylcyclopropyl)benzamide]
9.7	Nc1nc2c(F)cccc2c2nc(Cc3cccc(C(=O)Nc4ccccn4)c3)cn12 [Ex-85, 3-((5-amino-7-fluoroimidazo[1,2-c]quinazolin-2-yl)methyl)-N-(pyridin-2-yl)benzamide]
8.1	Nc1nc2c(F)cccc2c2nc(CN3CCCc4cc(Br)ccc43)cn12 [Ex-125, 2-((6-bromo-3,4-dihydroquinolin-1(2H)-yl)methyl)-7-fluoroimidazo[1,2-c]quinazolin-5-amine]
34	Nc1nc2c(F)cccc2c2nc(CC3CCN(C(=O)c4cnccn4)CC3)cn12 [Ex-321, (4-((5-amino-7-fluoroimidazo[1,2-c]quinazolin-2-yl)-methyl)piperidin-1-yl)(pyrazin-2-yl)-methanone]
